Laboratory results published in patent US10590113B2, “6-hydroxy-4-oxo-1,4-dihydropyrimidine-5-carboxamides as APJ agonists” (priority 2016, dated 2020).
Where two headings read alike, the source gives them in different places.

Target: T1, human APJ receptor (Homo sapiens, UniProt P35414)
T1 construct: expressed in transfected cells; host or cells: HEK293
T1 sequence (P35414 1-380): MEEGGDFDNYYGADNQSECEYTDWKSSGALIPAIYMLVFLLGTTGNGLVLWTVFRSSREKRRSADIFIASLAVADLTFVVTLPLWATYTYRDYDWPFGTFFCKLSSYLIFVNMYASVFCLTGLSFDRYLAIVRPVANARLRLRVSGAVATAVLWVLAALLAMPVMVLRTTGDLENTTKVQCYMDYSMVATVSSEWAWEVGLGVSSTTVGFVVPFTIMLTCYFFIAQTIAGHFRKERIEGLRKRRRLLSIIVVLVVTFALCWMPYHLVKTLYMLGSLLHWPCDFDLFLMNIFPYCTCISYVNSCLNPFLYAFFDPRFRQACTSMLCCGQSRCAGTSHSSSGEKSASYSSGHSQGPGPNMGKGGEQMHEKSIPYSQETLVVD
Experiment: Intracellular cAMP Accumulation Assay (APJ hcAMP, HTRF)
Type: cell-based
Settings: human APJ, read-out: hAPJ cAMP EC50 Potency range
Outline: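 Stably transfected HEK293 cells (5,000/well) incubated 30 min at room temperature with serially diluted compound, […] and 2 μM forskolin. cAMP measured by HTRF after 60 min with detection reagents, quantified against a cAMP standard curve; EC50 from variable-slope sigmoidal fit of inhibition of forskolin-stimulated cAMP.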

[1] = intracellular cAMP accumulation

Row | SMILES | EC50 [1] [nM] | EC50 (cAMP accumulation, potency range class) [nM]
1 | CCOCc1nc(=O)c(C(=O)N2CCC(c3cccc(F)c3)C2)c(O)n1-c1c(OC)cccc1OC (single isomer, unassigned) [Example 84, 1-(2,6-dimethoxyphenyl)-2-(ethoxymethyl)-5-[3-(3-fluorophenyl)pyrrolidine-1-carbonyl]-6-hydroxy-1,4-dihydropyrimidin-4-one] | 0.01 to 10 | –
2 | CCCCc1nc(=O)c(C(=O)N2CC[C@@H](c3ccccc3)C2)c(O)n1C(C)c1ccccc1Cl (stereo partly drawn) [Example 133, 2-butyl-3-[1-(2-chlorophenyl)ethyl]-6-hydroxy-5-[(3S)-3-phenylpyrrolidine-1-carbonyl]-3,4-dihydropyrimidin-4-one] | 10 to 100 | –
3 | COc1cccc(OC)c1-n1c(COC(C)C)nc(=O)c(C(=O)N2CC[C@H](c3ccccc3)C2)c1O [Example 12, (R)-1-(2,6-dimethoxyphenyl)-6-hydroxy-2-(isopropoxymethyl)-5-(3-phenylpyrrolidine-1-carbonyl)pyrimidin-4(1H)-one] | 0.01 to 10 | –
4 | CCc1cccc(CC)c1-n1c(-c2ccn(CC(C)C)n2)nc(=O)c(C(=O)N2CCC(c3ccc(F)cn3)C2)c1O (single isomer, unassigned) [Example 318, 1-(2,6-diethylphenyl)-5-[3-(5-fluoropyridin-2-yl)pyrrolidine-1-carbonyl]-6-hydroxy-2-[1-(2-methylpropyl)-1H-pyrazol-3-yl]-1,4-dihydropyrimidin-4-one] | – | 0.01 to 10
